Measured values taken from PubChem BioAssay (NCI).
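Exposure lasted 48 hours, with cells grown in 96-well plates and compounds tested at five concentrations. TGI: concentration producing complete growth inhibition.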

How the values were obtained:
Assay in all cases: NCI anticancer screen, dose series, 48 h
786-0 renal = test system: 786-0 renal
A498 renal = test system: A498 renal
A549 NSCLC = test system: A549 NSCLC
ACHN renal = test system: ACHN renal
BT-549 breast = test system: BT-549 breast
CAKI-1 renal = test system: CAKI-1 renal
CCRF-CEM leukemia = test system: CCRF-CEM leukemia
COLO 205 colon = test system: COLO 205 colon
DU-145 prostate = test system: DU-145 prostate
EKVX NSCLC = test system: EKVX NSCLC
HCC-2998 colon = test system: HCC-2998 colon
HCT-116 colon = test system: HCT-116 colon
HCT-15 colon = test system: HCT-15 colon
HL-60(TB) leukemia = test system: HL-60(TB) leukemia
HOP-62 NSCLC = test system: HOP-62 NSCLC
HOP-92 NSCLC = test system: HOP-92 NSCLC
HS 578T breast = test system: HS 578T breast
HT29 colon = test system: HT29 colon
IGROV1 ovarian = test system: IGROV1 ovarian
K-562 leukemia = test system: K-562 leukemia
KM12 colon = test system: KM12 colon
LOX IMVI melanoma = test system: LOX IMVI melanoma
M14 melanoma = test system: M14 melanoma
MALME-3M melanoma = test system: MALME-3M melanoma
MCF7 breast = test system: MCF7 breast
MDA-MB-231 breast = test system: MDA-MB-231 breast
MDA-MB-435 = test system: MDA-MB-435
MDA-N = test system: MDA-N
MOLT-4 leukemia = test system: MOLT-4 leukemia
NCI-H226 lung = test system: NCI-H226 lung
NCI-H23 lung = test system: NCI-H23 lung
NCI-H460 lung = test system: NCI-H460 lung
NCI-H522 lung = test system: NCI-H522 lung
NCI/ADR-RES ovarian = test system: NCI/ADR-RES ovarian
OVCAR-3 ovarian = test system: OVCAR-3 ovarian
OVCAR-4 ovarian = test system: OVCAR-4 ovarian
OVCAR-5 ovarian = test system: OVCAR-5 ovarian
OVCAR-8 ovarian = test system: OVCAR-8 ovarian
PC-3 prostate = test system: PC-3 prostate
RPMI-8226 leukemia = test system: RPMI-8226 leukemia
RXF 393 renal = test system: RXF 393 renal
SF-268 CNS = test system: SF-268 CNS
SF-295 CNS = test system: SF-295 CNS
SF-539 CNS = test system: SF-539 CNS
SK-MEL-2 melanoma = test system: SK-MEL-2 melanoma
SK-MEL-28 melanoma = test system: SK-MEL-28 melanoma
SK-MEL-5 melanoma = test system: SK-MEL-5 melanoma
SK-OV-3 ovarian = test system: SK-OV-3 ovarian
SN12C renal = test system: SN12C renal
SNB-19 CNS = test system: SNB-19 CNS
SNB-75 CNS = test system: SNB-75 CNS
SR leukemia = test system: SR leukemia
SW-620 colon = test system: SW-620 colon
T-47D breast = test system: T-47D breast
TK-10 renal = test system: TK-10 renal
U251 CNS = test system: U251 CNS
UACC-257 melanoma = test system: UACC-257 melanoma
UACC-62 melanoma = test system: UACC-62 melanoma
UO-31 renal = test system: UO-31 renal
DMS 114 small cell lung = test system: DMS 114 small cell lung
DMS 273 small cell lung = test system: DMS 273 small cell lung
KM20L2 colon = test system: KM20L2 colon
M19-MEL melanoma = test system: M19-MEL melanoma
SNB-78 CNS = test system: SNB-78 CNS

Measured: TGI

COc1cccc(Nc2nc(NS(=O)(=O)c3cc(C)c(Cl)cc3S)n[nH]2)c1
not listed: DMS 114 small cell lung | DMS 273 small cell lung | KM20L2 colon | M19-MEL melanoma | SNB-78 CNS
> 100 µM: all other assays above

CCCC(=O)OC1C(C2COC(C)(C)O2)OC2OC(C)(C)OC21 (centres undefined)
not listed: 786-0 renal | A549 NSCLC | BT-549 breast | CAKI-1 renal | COLO 205 colon | DU-145 prostate | HCC-2998 colon | HCT-15 colon | HS 578T breast | LOX IMVI melanoma | MALME-3M melanoma | MCF7 breast | MDA-MB-231 breast | MDA-MB-435 | MDA-N | NCI-H226 lung | NCI/ADR-RES ovarian | OVCAR-3 ovarian | OVCAR-4 ovarian | PC-3 prostate | RPMI-8226 leukemia | SF-268 CNS | SF-539 CNS | SK-MEL-2 melanoma | SK-MEL-5 melanoma | SN12C renal | SNB-75 CNS | SW-620 colon | T-47D breast
> 100 µM: all other assays above
